Laboratory results published in article PMC3380012, “Wild-Type Phosphoribosylpyrophosphate Synthase (PRS) from Mycobacterium tuberculosis: A Bacterial Class II PRS?” (PLoS ONE, 2012).
“And” between values parts separate entries of the source, which are not always exact repeats. Equal values may be shown once. “Also recorded” adds a separate entry of the source. Read-outs that look alike come from different tables or passages of the source.

Tests used:
[1] = target: T1, MtPRS (Mycobacterium tuberculosis, UniProt P9WKE3); test: Intrinsic tryptophan fluorescence (ITF) titration, binary complex formation at equilibrium; assay type: binding; conditions: for change in intrinsic protein fluorescence upon titration of free MtPRS: absence of second substrate; for Kd: Tris HCl 50 mM pH 7.5, MgCl2 20 mM, read-out: KD (hyperbolic binding to free MtPRS)
Protocol: Intrinsic tryptophan fluorescence titration was carried out to assess binary complex formation at equilibrium between MtPRS and either substrate(s) or product(s) at 25°C [43]. […] Fluorescence titrations were performed by making microliter additions of substrates and products at varying stock concentrations to 1 mL of MtPRS 3 µM, with a maximum dilution of 6%. […] After each ligand titration, the mixture was stirred for 3 minutes to ensure equilibrium binding prior to ITF measurements. […] Control experiments were performed in the same conditions in the absence of MtPRS to verify any inner filter effect, and the values found in the control experiments were subtracted from those obtained in the presence of the enzyme. No corrections for effects of protein dilution on ITF upon addition of buffer A containing MgCl2 20 mM to MtPRS were necessary. Data from equilibrium fluorescence spectroscopy were fitted to Eq. (5) for hyperbolic binding isotherms, in which F is the observed fluorescence signal; F max is the maximal fluorescence intensity; and KD represents the dissociation constant for binding of substrate and/or product to MtPRS. Sigmoidal binding data were fitted Eq. (6), in which F is the observed fluorescence signal, F max is the maximal fluorescence intensity, n is the Hill coefficient, and K’ is a constant comprising interaction factors and the intrinsic dissociation constant. [drawing 5] (5) [drawing 6] (6)

[2] = target: T2, MtOPRT (M. tuberculosis orotate phosphoribosyltransferase) (Mycobacterium tuberculosis, UniProt P9WHK9); test: Control measurement of coupled enzyme MtOPRT activity in presence of donors and inhibitors; assay type: biochemical; conditions: compounds present in the assay mixtures of the coupled assays; data not shown
T2 construct: made in house
T2 sequence (P9WHK9 whole entry): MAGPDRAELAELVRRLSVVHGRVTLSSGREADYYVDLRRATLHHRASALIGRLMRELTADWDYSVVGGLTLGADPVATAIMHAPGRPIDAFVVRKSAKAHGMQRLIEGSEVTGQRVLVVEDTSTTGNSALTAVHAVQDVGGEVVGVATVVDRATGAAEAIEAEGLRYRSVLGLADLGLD
Protocol: (§1) All chemicals were purchased from Sigma Aldrich. All enzyme activity assays were performed in triplicate. MtPRS activity was measured by a coupled continuous spectrophotometric assay in quartz cuvettes using a UV-visible Shimadzu spectrophotometer UV2550 equipped with a temperature-controlled cuvette holder. […] Homogeneous recombinant MtOPRT was obtained as described elsewhere. […] The reaction mixture (500 µL) contained 1.8 U MtOPRT, 300 µM OA, 20 mM MgCl2, in Tris HCl 50 mM pH 8.0. Reaction was started by addition of MtPRS (0.24–1.2 µM). One unit of MtPRS is defined as the amount of enzyme necessary to convert 1 µmol of R5P to PRPP per min. Effect of Pi over MtPRS activity was assessed by varying Pi concentration (10–50 mM) in the reaction conditions described above.
Accordingly, the effects of the alternative diphosphoryl group donors, or nucleoside 5′-diphosphate or monophosphate inhibitors, were solely due to changes in MtPRS enzyme activity.

[3] = tested on: S. typhimurium PRS; set-up: method as in PMID 211378; conditions: cited from earlier work
[4] = target: T1, MtPRS; test: MtPRS inhibition assays (coupled assay, fixed R5P and ATP); assay type: biochemical
Protocol: as §1
All measurements were performed in triplicate. The concentration of inhibitor required to reduce the fractional enzyme activity to half of its initial value in the absence of inhibitor (IC50) was obtained from fitting the data to Eq. (4) for partial inhibition, in which y is the fractional activity of the enzyme in the presence of inhibitor at concentration [I]; y (max) is the maximum value of y observed at [I] = 0; and y min is the minimum limiting value of y at high inhibitor concentrations. [drawing 4] (4)

[5] = tested on: Nc1nc2c(ncn2[C@@H]2O[C@H](COP(=O)(O)OP(=O)(O)OP(=O)(O)O)[C@@H](O)[C@H]2O)c(=O)[nH]1; test: purified protein, by the assay type; conditions: pH 8.0
[6] = tested on: O=P(O)(O)OC[C@H]1O[C@H](O)[C@H](O)[C@@H]1O; test: purified protein, by the assay type; conditions: pH 8.0
[7] = tested on: O=c1ccn([C@@H]2O[C@H](COP(=O)(O)OP(=O)(O)OP(=O)(O)O)[C@@H](O)[C@H]2O)c(=O)[nH]1; test: purified protein, by the assay type; conditions: pH 8.0
[8] = tested on: M. tuberculosis PRS; conditions: ref Alderwick, et al. 2011 [30], cited from earlier work
[9] = tested on: M. tuberculosis PRS; conditions: cited from earlier work; for IC50: read-out: IC50 (inhibition of MtPRS activity)
[10] = target: T3, MtPRS (Mycobacterium tuberculosis phosphoribosylpyrophosphate synthase) (Mycobacterium tuberculosis, UniProt P9WKE3); test: biochemical
[11] = target: T3, MtPRS (Mycobacterium tuberculosis phosphoribosylpyrophosphate synthase); conditions: diphosphoryl donor varied, R5P fixed at 60 µM, 25°C
[12] = target: the molecule itself; test: cross-linking; glutaraldehyde vapour cross-linking, 0.3 mg/mL MtPRS in Tris HCl 50 mM pH 7.5 with ADP 5 mM, with or without Pi 50 mM, 30°C, 12% SDS-PAGE
[13] = target: the molecule itself; test: cross-linking; glutaraldehyde vapour cross-linking, 0.3 mg/mL MtPRS in Tris HCl 50 mM pH 7.5 with ATP 5 mM, with or without Pi 50 mM, 30°C, 12% SDS-PAGE
[14] = target: the molecule itself; test: cross-linking; glutaraldehyde vapour cross-linking, 0.3 mg/mL MtPRS in Tris HCl 50 mM pH 7.5 with R5P 5 mM, with or without Pi 50 mM, 30°C, 12% SDS-PAGE
[15] = target: the molecule itself; test: cross-linking; glutaraldehyde vapour cross-linking, 0.3 mg/mL apo MtPRS in Tris HCl 50 mM pH 7.5, with or without Pi 50 mM, 30°C, different incubation times, 12% SDS-PAGE
[16] = target: the molecule itself; test: as above; remark: listed apart in the source
[17] = 37°C, KH2PO4 50 mM pH 8.0, ref Lucarelli, et al. 2010 [31]
[18] = read-out: IC50 (partial inhibition of MtPRS activity)
[19] = ref Lucarelli, et al. 2010 [31]

In the case of `Nc1ncnc2c1ncn2[C@@H]1O[C@H](COP(=O)(O)O)[C@@H](O)[C@H]1O` [AMP], the “K' (sigmoidal binding, Hill equation)” value ([1]; 25°C, MtPRS 3 µM, MgCl2 20 mM) is reported as 109 (±3) µM and 109 µM and the Hill coefficient ([1]; sigmoidal binding to free MtPRS) is reported as 3.2.

In the case of `O=c1ccn([C@@H]2O[C@H](COP(=O)(O)OP(=O)(O)OP(=O)(O)O)[C@@H](O)[C@H]2O)c(=O)[nH]1` [UTP, uridine 5′-triphosphate], the “change in intrinsic protein fluorescence upon titration of free MtPRS” value (from here on “change … of free MtPRS”) ([1]; 25°C, MtPRS 3 µM) is listed as “No change in protein fluorescence; also recorded: no change in IFT could be detected”, the “effect on MtOPRT enzyme activity” value [2] is listed as “did not have any effect” and the “activity as alternative substrate, of maximum reported activity using ATP as substrate” value (“activity as alternative substrate” for short) [3] is listed as 3%.

With `O=c1ccn([C@@H]2O[C@H](COP(=O)(O)O)[C@@H](O)[C@H]2O)c(=O)[nH]1` [UMP] the IC50 ([4]; R5P 60 µM, ATP 300 µM fixed, 0.24 µM MtPRS, no Pi, fit to partial inhibition equation) was 3000 µM and the “effect on MtOPRT enzyme activity” value [2] was “did not have any effect”.

In the case of `Nc1nc2c(ncn2[C@@H]2O[C@H](COP(=O)(O)OP(=O)(O)OP(=O)(O)O)[C@@H](O)[C@H]2O)c(=O)[nH]1` [GTP, guanosine 5′-triphosphate], the Kd ([1]; 25°C, MtPRS 3 µM) is given as 21 µM, the “effect on MtOPRT enzyme activity” value [2] is given as “did not have any effect” and the “activity as alternative substrate” value [3] is given as 3%.

For “MtPRS (Mycobacterium tuberculosis phosphoribosylpyrophosphate synthase) (Mycobacterium tuberculosis H37Rv)”, the Km [5] was 37 (±9) µM, the Vmax [5] was 0.237 µmol/min/mg and the kcat [5] was 0.14 ± 0.002 s⁻¹. The kcat/Km [5] was 3800 ± 900 M⁻¹ s⁻¹, the Km [6] was 14 (±2) µM and the Vmax [6] was 1.41 µmol/min/mg. For the same molecule, the kcat [6] was 0.83 ± 0.04 s⁻¹, the kcat/Km [6] was 59000 ± 8000 M⁻¹ s⁻¹ and the Km [7] was 52 (±7) µM. It also gave a Vmax [7] of 0.264 µmol/min/mg, a kcat [7] of 0.155 s⁻¹ and a kcat/Km [7] of 3000 M⁻¹ s⁻¹.

For `O=P(O)(O)OC[C@H]1O[C@H](O)[C@H](O)[C@@H]1O` [R5P, α-D-ribose 5-phosphate], the Kd ([1]; 25°C, MtPRS 3 µM) is listed as 61 µM, the Km ([8]; 37°C, KH2PO4 50 mM pH 8.0) is listed as 8.2 µM and the Vmax ([8]; 37°C, KH2PO4 50 mM pH 8.0) is listed as 530 µmol⁻¹ min⁻¹ mg⁻¹. The kcat ([8]; 37°C, KH2PO4 50 mM pH 8.0) was 60.68 s⁻¹, the Km [9, 17] was 71 µM and the kcat [9, 17] was 37.1 s⁻¹. It also gave a Ki [10] of 211 µM.

For `Nc1nc2c(ncn2[C@@H]2O[C@H](COP(=O)(O)OP(=O)(O)O)[C@@H](O)[C@H]2O)c(=O)[nH]1` [GDP, guanosine 5′-diphosphate], the IC50 [4, 18] is listed as 900 µM, the “effect on MtOPRT enzyme activity” value [2] is listed as “did not have any effect” and the IC50 ([9]; in the presence of Pi) is listed as greater than 5000 µM.

For `O=c1[nH]cnc2c1ncn2[C@@H]1O[C@H](COP(=O)(O)OP(=O)(O)OP(=O)(O)O)[C@@H](O)[C@H]1O` [ITP], the “activity as alternative substrate” value [3] is listed as 3%.

For `Nc1ncnc2c1ncn2[C@@H]1O[C@H](COP(=O)(O)OP(=O)(O)OP(=O)(O)O)[C@@H](O)[C@H]1O` [ATP, adenosine 5′-triphosphate], the Kd ([1]; 25°C, MtPRS 3 µM) is listed as 18 µM, the “effect on MtOPRT enzyme activity” value [2] is listed as “did not have any effect” and the Vmax ([8]; 37°C, KH2PO4 50 mM pH 8.0) is listed as 601 µmol⁻¹ min⁻¹ mg⁻¹. For the same molecule, the S0.5 [8] was 62.65 µM, the “n (Hill coefficient)” value [8] was 1.68 and the kcat [9, 17] was 34.6 (±3) s^−1. The S0.5 [9, 19] was 260 (±50) µM and the “n (Hill coefficient)” value [9, 19] was 1.

With `O=P(O)(O)OC[C@H]1O[C@H](OP(=O)(O)OP(=O)(O)O)[C@H](O)[C@@H]1O` [PRPP, 5-phospho-α-D-ribose 1-diphosphate] the “change … of free MtPRS” value ([1]; 25°C, MtPRS 3 µM) was “no intrinsic protein fluorescence change; also recorded: No change in ITF could be detected”.

In the case of `Nc1ncnc2c1ncn2[C@@H]1O[C@H](COP(=O)(O)OP(=O)(O)O)[C@@H](O)[C@H]1O` [ADP, adenosine 5′-diphosphate], the IC50 [4, 18] is given as 70 µM, the “effect on MtOPRT enzyme activity” value [2] is given as “did not have any effect” and the IC50 ([9]; saturating ATP and non-saturating Pi concentrations) is given as 260 µM. The IC50 ([9]; saturating ATP and saturating Pi concentrations) was 400 µM.

For `Nc1ccn([C@@H]2O[C@H](COP(=O)(O)OP(=O)(O)OP(=O)(O)O)[C@@H](O)[C@H]2O)c(=O)n1` [CTP, cytosine 5′-triphosphate], the “change … of free MtPRS” value ([1]; 25°C, MtPRS 3 µM) was “No change in protein fluorescence; also recorded: no change in IFT could be detected”, the “effect on MtOPRT enzyme activity” value [2] was “did not have any effect” and the “Vmax (apparent)” value ([11]; pH 8.0, no Pi) was 0.111 (±0.003) µmol^−1 min^−1 mg^−1. For the same molecule, the kcat ([11]; pH 8.0, no Pi) was 0.065 (±0.001) s^−1, the Km ([11]; read-out: KM (apparent), Tris HCl 50 mM pH 8.0, MgCl2 20 mM, no Pi) was 26 µM and the “activity as alternative substrate” value [3] was 3%.

B1: Mycobacterium tuberculosis phosphoribosylpyrophosphate synthase (MtPRS) (enzyme)
chain: MSHDWTDNRKNLMLFAGRAHPELAEQVAKELDVHVTSQDAREFANGEIFVRFHESVRGCDAFVLQSCPAPVNRWLMEQLIMIDALKRGSAKRITAVMPFYPYARQDKKHRGREPISARLIADLLKTAGADRIVTVDLHTDQIQGFFDGPVDHMRGQNLLTGYIRDNYPDGNMVVVSPDSGRVRIAEKWADALGGVPLAFIHKTRDPRVPNQVVSNRVVGDVAGRTCVLIDDMIDTGGTIAGAVALLHNDGAGDVIIAATHGVLSDPAAQRLASCGAREVIVTNTLPIGEDKRFPQLTVLSIAPLLASTIRAVFENGSVTGLFDGDA
notes: also called prsA gene product; Rv1017c
For B1, the “stoichiometry N” value [12] was 4, the “stoichiometry N” value [13] was 2 and the “stoichiometry N” value [14] was 6. The “stoichiometry N” value [15] was 3 and the “stoichiometry N” value [16] was 6.
